Experimental data from patent US20120225471A1, “Method for producing a composite material” (priority 2011, published 2012).

Tested on: zygomycetes, ascomycetes and bacteria/yeast
Experiment: Cotton burr substrate disinfection, all contaminant types
Assay type: cell-based
Conditions: 2.5 mL Tween 80 added to each PEO concentration; Fisher's Exact Test p=0.318, 0.499, 0.448 (zygomycetes, ascomycetes, bacteria/yeast)
Description: Eight plant essential oils (cinnamon, clove, lemongrass, oregano, savory, spearmint, tea tree and thyme) were prepared with tap water in 600 ml Pyrex glass beakers in the following volumetric concentrations: 0.1, 0.5, 1.0, 1.5, 2.0% [v:v]. Twenty-four grams of a propriety cotton burr substrate was placed in a 25×25 cm square of tule mesh tied with a rubber band to make one bundle. Each concentration was tested in replicates of 5, by submersing each bundle in a beaker containing one of the plant essential (PEO) concentrations for three hours. Each beaker was placed under constant magnetic stirring at 300 rpm, to maintain the oil emulsion during the exposure period.
The bundle was then opened within a laminar flow hood and three pieces of cotton burrs were transferred to five Petri plates each of Potato Dextrose Agar (PDA) and Tryptic Soy Agar (TSA).
The submersion process was repeated for each PEO at the five concentrations over a period of three weeks. The number of ascomycete, zygomycete and bacteria/yeast colonies were recorded for each plate every 3 days for 15 days. […]
Example 2 followed the same procedure as Example 1, but examined the efficacy of the five selected oil concentrations at the following exposure intervals: 30, 60, and 120 minutes. This analysis determined the minimum exposure time required for microbial inhibition on cotton burr substrate. […]

With `CCCCCCCC/C=C\CCCCCCCC(=O)OCCOCC(OCCO)C1OCC(OCCO)C1OCCO` (stereo not shown) [Tween 80] the “frequency of contamination on substrate treated with the surfactant versus non-treated substrate” value was “no significant difference”.
